Values belong to the compound of their own block, whether it stands above or below them.
Columns and labels:
[1] = design: method as in PMID 9461591; settings: DM/HC pigs, vs untreated; cited from earlier work
[2] = phase 2a study; cited from earlier work
[3] = Study 2: safety and tolerability (adverse events); settings: by treatment: simvastatin 10 mg SD N = 12; GSK2647544 80 mg b.i.d. 7 days + simvastatin N = 9
[4] = molecular target: T1, CYP3A4 (Homo sapiens, UniProt P08684); settings: A1+S vs S, the 9 subjects who received both
T1 sequence (P08684 whole entry): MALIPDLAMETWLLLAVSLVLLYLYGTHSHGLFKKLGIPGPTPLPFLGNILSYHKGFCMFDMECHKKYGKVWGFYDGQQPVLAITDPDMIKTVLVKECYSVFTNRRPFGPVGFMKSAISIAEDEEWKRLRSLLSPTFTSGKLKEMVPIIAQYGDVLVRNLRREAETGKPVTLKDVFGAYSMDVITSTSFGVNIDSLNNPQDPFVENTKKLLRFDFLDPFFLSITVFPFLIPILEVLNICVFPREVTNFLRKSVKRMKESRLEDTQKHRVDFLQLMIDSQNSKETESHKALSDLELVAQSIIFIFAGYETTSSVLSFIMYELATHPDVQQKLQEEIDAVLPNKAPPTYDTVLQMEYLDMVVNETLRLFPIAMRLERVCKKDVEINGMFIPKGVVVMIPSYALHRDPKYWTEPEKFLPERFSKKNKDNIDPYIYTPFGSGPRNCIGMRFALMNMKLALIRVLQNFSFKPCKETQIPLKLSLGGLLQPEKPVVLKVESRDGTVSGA

[5] = molecular target: T1, CYP3A4; experiment: clinical; settings: plasma, oral; for AUC(0-t): AUC(0-t) of analyte; for AUC(0-t) / Cmax: geometric mean (CVb%); for Cmax: Cmax of analyte
[6] = 10 mg, S = simvastatin 10 mg SD alone
[7] = A1+S = simvastatin 10 mg SD plus GSK2647544 80 mg b.i.d. for 7 days
[8] = P1+S = simvastatin 10 mg SD plus matched placebo b.i.d. for 7 days

Compound: CCN(CC)CCN(Cc1ccc(-c2ccc(C(F)(F)F)cc2)cc1)C(=O)Cn1c(SCc2ccc(F)cc2)nc(=O)c2c1CCC2 [darapladib]
extent of immunoglobulin-G brain parenchyma penetration [1]: numerically reduced
total amount of brain amyloid-β peptide 1-42 deposition [1]: significantly lowered

Compound: COCCN1CCC(N(Cc2ccc(-c3ccc(C(F)(F)F)cc3)cc2)C(=O)Cn2c(SCc3cccc(F)c3F)cc(=O)c3ccccc32)CC1 [rilapladib]
cognitive outcomes [2]: improved cognitive outcomes

Compound: CCC(C)(C)C(=O)O[C@H]1C[C@@H](C)C=C2C=C[C@H](C)[C@H](CC[C@@H]3C[C@@H](O)CC(=O)O3)[C@H]21 [Simvastatin, simvastatin]
Abdominal discomfort [3]: 0 n (%)
Abdominal distention [3]: 0 n (%)
Any AE [3]: 1 (8%) n (%)
Application site rash [3]: 1 (8%) n (%)
Arthragia [3]: 0 n (%)
Back pain [3]: 0 n (%)
Dizziness [3]: 0 n (%)
Eructation [3]: 0 n (%)
Headache [3]: 0 n (%)
Nasopharyngitis [3]: 0 n (%)
Pain in extremity [3]: 0 n (%)
Pollakiuria [3]: 1 (8%) n (%)

Ratio of geometric means (90% CI), AUC(0-t) [4]: 3.09 (1.05, 9.03)
Ratio of geometric means (90% CI), AUC(0–∞) [4]: 1.50 (0.48, 4.71)
Ratio of geometric means (90% CI), Cmax [4]: 2.30 (1.46, 3.63)
AUC(0-t) [5, 6]: 2.49 ng·h/mL
Cmax [5, 6]: 0.504 ng/mL
Tmax ([5]; 10 mg, tmax of analyte, median (range), S = simvastatin 10 mg SD alone): 4.04 h
AUC(0-t) [5, 7]: 7.93 ng·h/mL
AUC(0-t) [5, 8]: 2.14 ng·h/mL
Cmax [5, 7]: 1.3 ng/mL
Cmax [5, 8]: 0.351 ng/mL
Tmax ([5]; median tmax of analyte, simvastatin alone): 4 h
Tmax ([5]; median tmax of analyte, simvastatin in combination with GSK2647544): 6 h
Tmax ([5]; tmax of analyte, median (range), A1+S = simvastatin 10 mg SD plus GSK2647544 80 mg b.i.d. for 7 days): 5.92 h
Tmax ([5]; tmax of analyte, median (range), P1+S = simvastatin 10 mg SD plus matched placebo b.i.d. for 7 days): 5.92 h
Compound: CCC(C)(C)C(=O)O[C@H]1C[C@@H](C)C=C2C=C[C@H](C)[C@H](CC[C@@H](O)C[C@@H](O)CC(=O)O)[C@H]21 [Simvastatin acid, simvastatin acid]

From PMC5299597, “Evaluation of the safety, pharmacokinetics, pharmacodynamics, and drug-drug interaction potential of a selective Lp-PLA2 inhibitor (GSK2647544) in healthy volunteers” (International Journal of Clinical Pharmacology and …, 2016)
